Source: DBAASP
≈ marks a conversion by molar mass, not a printed value. Where “and” joins values, the source holds several entries; their conditions need not be identical. Equal entries are not always repeated. Each block holds one molecule with its values, some of them ahead of it.

How the values were obtained:
Test in all cases: ≥ marks a high value that may be exact or a test limit, other limits are often not marked, values filed in µg/mL are converted to µM
Bacillus subtilis PY79 = tested on: Bacillus subtilis PY79
[1] = tested on: Escherichia coli ATCC 25922
[2] = tested on: Escherichia coli DH5alpha
[3] = tested on: Klebsiella pneumoniae ATCC 700603
[4] = tested on: Pseudomonas aeruginosa PA14
[5] = tested on: Pseudomonas aeruginosa PAO1
[6] = tested on: Staphylococcus aureus ATCC 6538P
Candida albicans SC5314 = tested on: Candida albicans SC5314
Candida krusei ATCC 6258 = tested on: Candida krusei ATCC 6258
[7] = tested on: Candida parapsilosis ATCC 22019
[8] = tested on: Candida tropicalis ATCC 13803
Escherichia coli 1 = tested on: Escherichia coli 1
Escherichia coli C600 = tested on: Escherichia coli C600
Escherichia coli = tested on: Escherichia coli
Klebsiella pneumoniae 1 = tested on: Klebsiella pneumoniae 1
Klebsiella pneumoniae 2 = tested on: Klebsiella pneumoniae 2
Pseudomonas aeruginosa 1 = tested on: Pseudomonas aeruginosa 1
Pseudomonas aeruginosa 2 = tested on: Pseudomonas aeruginosa 2
[9] = tested on: Staphylococcus aureus 209P
[10] = tested on: Staphylococcus aureus ATCC 33591
[11] = tested on: Aspergillus niger ATCC 16404
[12] = tested on: Candida albicans ATCC 10231
[13] = tested on: Candida glabrata ATCC 15126
[14] = tested on: Enterococcus faecalis PCM 2673
[15] = tested on: Escherichia coli ATCC 23506
[16] = tested on: Pseudomonas aeruginosa ATCC 9027
[17] = tested on: Staphylococcus aureus ATCC 25923
[18] = tested on: Staphylococcus aureus ATCC 9144
[19] = tested on: Streptococcus pneumoniae ATCC 49619
Candida albicans C627 = tested on: Candida albicans C627
[20] = tested on: Enterococcus faecium mic80
[21] = tested on: Escherichia coli ESBL 63103
[22] = tested on: Pseudomonas aeruginosa 213
[23] = tested on: Pseudomonas aeruginosa H103
[24] = tested on: Pseudomonas aeruginosa LES400
[25] = tested on: Staphylococcus aureus C623
Klebsiella pneumoniae = tested on: Klebsiella pneumoniae
[26] = tested on: Mycobacterium tuberculosis mc2-6020
[27] = tested on: Mycobacterium tuberculosis mc2-6230
[28] = tested on: Pseudomonas aeruginosa ATCC 27853
Streptococcus agalactiae = tested on: Streptococcus agalactiae
Streptococcus mutans = tested on: Streptococcus mutans
Streptococcus pyogenes = tested on: Streptococcus pyogenes
[29] = tested on: Staphylococcus aureus ATCC 33592
[30] = tested on: Staphylococcus aureus NCTC 8530
Escherichia coli D31 = tested on: Escherichia coli D31
[31] = tested on: Listeria fleischmannii DSM 24998
Listeria grayi DSM 20601 = tested on: Listeria grayi DSM 20601
[32] = tested on: Listeria monocytogenes DSM 20600
[33] = tested on: Micrococcus luteus DSM 20030

Compound: CC(C)C[C@H](NC(=O)[C@H](CCCN=C(N)N)NC(=O)[C@@H](NC(=O)[C@H](CCCN=C(N)N)NC(=O)[C@@H](N)CC(C)C)C(C)C)C(=O)N[C@@H](C)C(=O)N[C@@H](CO)C(=O)N[C@@H](Cc1cnc[nH]1)C(=O)N[C@@H](CC(C)C)C(=O)N[C@@H](CCCN=C(N)N)C(=O)N[C@@H](CCCCN)C(=O)N[C@@H](CC(C)C)C(=O)N[C@@H](CCCN=C(N)N)C(=O)N[C@@H](CCCCN)C(=O)N[C@@H](CCCN=C(N)N)C(=O)N[C@@H](CC(C)C)C(=O)N[C@@H](CC(C)C)C(=O)N[C@@H](CCCN=C(N)N)C(=O)O [LRVRLASHLRKLRKRLLR]
MIC (Bacillus subtilis PY79): 25 µM (≈ 57.1 µg/mL)
MIC [1]: 6.25 µM (≈ 14.3 µg/mL)
MIC [2]: 12.5 µM (≈ 28.6 µg/mL)
MIC [3]: 6.25 µM (≈ 14.3 µg/mL)
MIC [4]: ≥ 50 µM
MIC [5]: 25 µM (≈ 57.1 µg/mL)
MIC [6]: 3.12 µM (≈ 7.13 µg/mL)

Compound: CC(C)[C@@H]1NC(=O)CNC(=O)[C@H](CCCN=C(N)N)NC(=O)[C@H](C(C)C)NC(=O)[C@H](CCCN=C(N)N)NC(=O)[C@H](C)NC(=O)[C@H](Cc2ccc(O)cc2)NC(=O)[C@H](C(C)C)NC(=O)[C@@H](NC(=O)[C@H](Cc2c[nH]c3ccccc23)NC(=O)[C@@H](N)CCCN=C(N)N)CSSC[C@@H](C(=O)N[C@@H](Cc2c[nH]c3ccccc23)C(=O)O)NC(=O)[C@H](CCCN=C(N)N)NC(=O)[C@H](CCCN=C(N)N)NC(=O)[C@H](Cc2ccc(O)cc2)NC(=O)[C@H](CCCN=C(N)N)NC1=O [RWCVYARVRGVRYRRCW]
MIC (Escherichia coli 1): 1 µM and 0.5 µM
MIC (Escherichia coli C600): 1.56 µM (≈ 3.56 µg/mL)
MIC (Escherichia coli): 1 µM (≈ 2.28 µg/mL)
MIC (Klebsiella pneumoniae 1): 1 µM and 2 µM
MIC (Klebsiella pneumoniae 2): 2 µM (≈ 4.57 µg/mL)
MIC (Pseudomonas aeruginosa 1): 2 µM and 4 µM
MIC (Pseudomonas aeruginosa 2): 4 µM (≈ 9.13 µg/mL)
MIC [5]: 6.25 µM (≈ 14.3 µg/mL)
MIC [9]: 1.56 µM (≈ 3.56 µg/mL)
MIC [10]: 0.06 µM (≈ 0.137 µg/mL)

Compound: CC[C@H](C)[C@H](NC(=O)CNC(=O)[C@H](CCCN=C(N)N)NC(=O)[C@@H](NC(=O)[C@H](CC(C)C)NC(=O)[C@H](CO)NC(=O)CNC(=O)[C@@H](NC(=O)[C@@H](N)CC(C)C)[C@@H](C)CC)C(C)C)C(=O)N[C@@H](CC(C)C)C(=O)N1CCC[C@H]1C(=O)N[C@@H](CC(C)C)C(=O)N[C@@H](Cc1ccccc1)C(N)=O [LIGSLVRGILPLF]
MIC [11]: ≥ 183 µM
MIC [12]: 183 µM (≈ 256 µg/mL)
MIC [13]: ≥ 183 µM
MIC [14]: ≥ 183 µM
MIC [15]: ≥ 183 µM
MIC [1]: 183 µM (≈ 256 µg/mL)
MIC [3]: 91.6 µM (≈ 128 µg/mL)
MIC [16]: 183 µM (≈ 256 µg/mL)
MIC [17]: 45.8 µM (≈ 64 µg/mL)
MIC [18]: ≥ 45.8 µM
MIC [19]: ≥ 183 µM

Compound: CC[C@H](C)[C@H](N)C(=O)N[C@@H](Cc1ccccc1)C(=O)NCC(=O)N[C@@H](C)C(=O)N[C@H](C(=O)N[C@@H](Cc1c[nH]c2ccccc12)C(=O)N[C@@H](CO)C(=O)NCC(=O)N[C@H](C(=O)N[C@@H](CCCCN)C(=O)N[C@@H](CO)C(=O)N[C@@H](CC(C)C)C(=O)N[C@@H](Cc1ccccc1)C(N)=O)[C@@H](C)CC)[C@@H](C)CC [IFGAIWSGIKSLF]
MIC (Escherichia coli D31): 8 µM (≈ 11.5 µg/mL)
MIC [31]: 4 µM (≈ 5.75 µg/mL)
MIC (Listeria grayi DSM 20601): 8 µM (≈ 11.5 µg/mL)
MIC [32]: 4 µM (≈ 5.75 µg/mL)
MIC [33]: 4 µM (≈ 5.75 µg/mL)

More lines, now with the values ahead:

MIC (Candida albicans SC5314): ≥ 113 µM
MIC (Candida krusei ATCC 6258): ≥ 113 µM
MIC [7]: ≥ 113 µM
MIC [8]: ≥ 56.6 µM
Compound: NCCCC[C@H](NC(=O)[C@H](Cc1ccc(O)cc1)NC(=O)[C@H](CCCCN)NC(=O)[C@@H](N)CS)C(=O)N[C@@H](Cc1c[nH]c2ccccc12)C(=O)N[C@@H](CCCN=C(N)N)C(=O)O [CKYKWR]

MIC (Candida albicans C627): 2.72 µM (≈ 4 µg/mL)
MIC [20]: 21.7 µM (≈ 32 µg/mL)
MIC [21]: 10.9 µM (≈ 16 µg/mL)
MIC [22]: 21.7 µM (≈ 32 µg/mL)
MIC [23]: 2.72 µM (≈ 4 µg/mL)
MIC [24]: 21.7 µM (≈ 32 µg/mL)
MIC [17]: 5.43 µM (≈ 8 µg/mL)
MIC [25]: 2.72 µM (≈ 4 µg/mL)
Compound: CC[C@H](C)[C@H](NC(=O)[C@H](Cc1c[nH]c2ccccc12)NC(=O)[C@H](CCCN=C(N)N)NC(=O)[C@H](Cc1c[nH]c2ccccc12)NC(=O)[C@H](Cc1c[nH]c2ccccc12)NC(=O)[C@H](CCCN=C(N)N)NC(=O)[C@H](CCCCN)NC(=O)[C@H](Cc1c[nH]c2ccccc12)NC(=O)[C@@H](N)CCCN=C(N)N)C(=O)O [RWKRWWRWI]

MIC [1]: 16 µM (≈ 29 µg/mL)
MIC (Klebsiella pneumoniae): 136 µM (≈ 247 µg/mL)
MIC [26]: 16 µM (≈ 29 µg/mL)
MIC [27]: ≥ 68 µM
MIC [28]: 68 µM (≈ 123 µg/mL)
MIC [17]: 32 µM (≈ 58 µg/mL)
MIC (Streptococcus agalactiae): ≥ 32 µM
MIC (Streptococcus mutans): 8 µM (≈ 14.5 µg/mL)
MIC [19]: ≥ 32 µM
MIC (Streptococcus pyogenes): 4 µM (≈ 7.25 µg/mL)
Compound: CC[C@H](C)[C@H](N)C(=O)N[C@@H](CCCN=C(N)N)C(=O)N[C@@H](CCCCN)C(=O)N[C@@H](CC(C)C)C(=O)N[C@@H](CCCCN)C(=O)N[C@@H](CO)C(=O)N[C@@H](Cc1c[nH]c2ccccc12)C(=O)N[C@@H](CCCCN)C(=O)N[C@@H](Cc1c[nH]c2ccccc12)C(=O)N[C@@H](CC(C)C)C(=O)N[C@@H](CCCN=C(N)N)C(=O)N[C@@H](Cc1c[nH]c2ccccc12)C(=O)N[C@@H](CC(C)C)C(=O)O [IRKLKSWKWLRWL]

MIC [28]: 8 µM (≈ 12.1 µg/mL)
MIC [29]: 4 µM (≈ 6.06 µg/mL)
MIC [30]: 8 µM (≈ 12.1 µg/mL)
Compound: CC[C@H](C)[C@H](NC(=O)[C@H](Cc1ccccc1)NC(=O)[C@H](CC(C)C)NC(=O)[C@H](CCCN=C(N)N)NC(=O)[C@@H](NC(=O)[C@H](CCCCN)NC(=O)[C@@H](NC(=O)[C@H](CC(C)C)NC(=O)[C@@H](N)C(C)C)[C@@H](C)CC)[C@@H](C)O)C(=O)N[C@@H](CCCCN)C(=O)N[C@@H](CCCN=C(N)N)C(=O)N[C@@H](CCCCN)C(=O)O [VLIKTRLFIKRK]
